# Experimental data: article PMC11443511, “Discovery of anti-infective compounds against Mycobacterium marinum after biotransformation of simple natural stilbenes by a fungal secretome” (Frontiers in Microbiology, 2024)
# Entries after “also recorded” stand apart in the source; their conditions may differ. Read-outs that look alike come from different tables or passages of the source.
# Columns and labels:
# [1] = tested on: Mycobacterium marinum (Mm) in infection of Dictyostelium discoideum (Mm-inf); test: Anti-infective assay, growth of Mm during infection of Dd (Mm-inf, luminescence); assay type: cell-based; conditions: for IC50: 72 h; for activity at 20 µM: vehicle = 1, baseline = 0, hit cut-off <0.5; for pro-infective effect on Mm-inf (in words): between 0.4 and 3.3 μM
# [2] = tested on: Dictyostelium discoideum (Dd-inf); test: microbe, parasite or virus in culture; assay type: cell-based; conditions: for normalized residual growth of Dd-inf: 20 μM, vehicle = 1, baseline = 0; for IC50: Dictyostelium discoideum, 72 h, read-out: IC50 Dd-inf (Dd growth)
# [3] = tested on: Mycobacterium marinum in broth (Mm-broth); test: Antibacterial assay, growth of Mm in broth (Mm-broth, luminescence); assay type: cell-based; conditions: for activity on Mm in broth (in words): screen at 20 μM or dose-response curve; for IC50 / MIC: Mycobacterium marinum; for IC50: read-out: IC50 Mm-broth; for activity on Mm-broth (in words): at respective maximal tested concentration; for normalized residual growth of Mm-broth: 20 μM, vehicle = 1, baseline = 0
# Mm [4] = test: Checkerboard assay for synergy with antibiotics
# Source text: We tested this compound for synergy with rifampicin and isoniazid in a checkerboard assay and additionally tested for synergy between rifampicin and isoniazid.
# intracellular Mm = test: Anti-infective assay with high-content microscopy, area of intracellular Mm; conditions: 20, 10, 2.5 μM, up to 48 h
# Procedure: (§1) To monitor both the host and pathogen during the course of infection in a quantitative manner, Dd Ax2(ka) cells expressing mCherry knocked-in at the act5 locus ([Paschke et al., 2019]) were infected as described above with Mm WT stably expressing GFP (Msp:12-GFP). As described above, the day before the experiment, 10^7 amoebae were plated in a 10 cm Petri dish. On the day of the experiment, infection was performed, as described above, in HL5-C at MOI 25 by spinoculation. This was followed by eight washes in HL5-C to clear a maximum of non-internalized bacteria. The infected amoebae were detached mechanically and resuspended in HL5-C with 0.75 U/mL penicillin and 0.75 μg/mL of streptomycin (Gibco). Compounds were diluted in HL5-C to a 10x stock of the final assay concentration and pre-plated in 20 μL into the respective wells of a 96-well μ-plate (iBIDI 96-well μ-plate, 89,626). Subsequently, 7,500 cells per well were added in a volume of 180 μL. Every condition has been plated in at least three technical replicates and at least three biological replicates. The 96-well plate was sealed with a gas permeable seal (4titude, 4ti-0516/96) and centrifuged briefly.
# (§2) Microscopy images were acquired at 25°C with a 40X plan Apo objective at selected time points over 48 h on the ImageXpress Micro C® automated microscope (Molecular Devices) in wide field mode. Focus was obtained automatically by autofocusing on the well bottom and plate bottom, at every well and every time point. In a grid of 4 × 5, 20 images per well, corresponding to a range of 500–6,000 cells, have been taken using the Texas-Red channel for Dd expressing mCherry and FITC channel for Mm expressing GFP in each experiment. Image analysis was performed using MetaXpress Custom Module editor software. Objects were effectively segmented by size and intensity. More precisely, amoebae were segmented using a “find blob module” using the Texas-Red channel. To segment the bacteria, the FITC image was first subjected to a light deconvolution with a top hat filter and then segmented using a “find blob module.” Intracellular bacteria and infected amoebae were determined by associating the mask of the amoebae and the bacteria. Several parameters such as intracellular and extracellular bacterial area sum, amoebae area sum, averaged and integrated fluorescence intensity and feature counts of bacteria and amoeba were extracted. The growth curves for the area sum of uninfected amoebae, infected amoebae and intracellular bacteria of independent biological replicates were averaged and plotted using GraphPad Prism (Version 8.0.1).
# (§3) Both uninfected Dd and Dd infected with Mm were treated with 20, 10 or 2.5 μM of 17 or 19 and the infection was monitored by collecting microscopy images at five time points for up to 48 h.
# Dd Ax2(ka) cells = test: Anti-infective assay with high-content microscopy, area of uninfected and infected Dd; conditions: 20, 10, 2.5 μM, up to 48 h
# Procedure: as §1, §2, §3
# Mm [5] = conditions: MIC90 from clinical isolates, cited from earlier work
# [6] = AUC of luminescence normalized to vehicle, 4PL regression, read-out: IC50 Mm-inf
# [7] = read-out: normalized residual growth of Mm-inf, 20 μM
# [8] = read-out: IC50 Mm-inf, 72 h, AUC of luminescence normalized to vehicle, 4PL regression
# [9] = at respective maximal tested concentration
# [10] = 20 μM, read-out: normalized residual growth of Mm-inf
# [11] = ref Woods and Clinical and Laboratory Standards Institute, 2011
# [12] = converted from μM, read-out: MIC in infection
# [13] = lowest concentration with normalized residual growth plus one SD ≤0, 72 h, read-out: MIC Mm-inf
# [14] = 72 h, 7H9 broth, 32°C, read-out: MIC Mm-broth
structure (smiles),measurement,setting,value
"COc1cc(O)cc(/C=C/c2ccc(O)cc2)c1 [compound 3, pinostilbene]",activity on Mm-inf (in words),[1]; dose-response curve,"active on Mm-inf, at high concentrations (>20 μM)"
Oc1ccc([C@H]2Oc3ccc(/C=C\c4cc(O)cc(O)c4)cc3[C@@H]2c2cc(O)cc(O)c2)cc1 [compound 55],activity on Mm-inf (in words),[1]; at 20 μM,inactive
COc1cc(OC)cc(C2c3cc(C=Cc4cc(O)cc(O)c4)ccc3OC2c2ccc(O)cc2)c1 (stereo not shown) [compound 17],IC50,[1]; [6],18.1 µM
same,activity on Mm-inf (in words),[1]; at 20 μM,passed again the 0.5 cut-off
same,activity on Mm-inf (in words),[1]; dose-response curve,dose-dependent activity; also recorded: validated anti-infectives without antibiotic properties
same,IC50,"[1]; read-out: IC50 Mm-inf, AUC of luminescence normalized to vehicle, 4PL regression",18.9 µM
same,activity at 20 µM,[1]; [7],34%
same,normalized residual growth of Dd-inf,[2],0.91
same,activity on Mm in broth (in words),[3],no activity on Mm in broth; also recorded: without antibiotic activity; also recorded: did not show any growth inhibition
same,synergy with rifampicin and isoniazid (in words),Mm [4],did not find striking synergy
same,"growth of intracellular Mm (segmented area, in words)",intracellular Mm,this effect was weaker
same,"growth of infected Dd (segmented area, in words)",Dd Ax2(ka) cells,this effect was weaker
COc1nc2ccc(Br)cc2cc1[C@@H](c1ccccc1)[C@@](O)(CCN(C)C)c1cccc2ccccc12 [bedaquiline],IC50,[1]; [8],4 µM
same,activity on Mm-inf (in words),[1]; [9],sterilizing activity
same,IC50,[3]; 72 h,1.6 µM
same,MIC,"[3]; 72 h, read-out: MIC Mm-broth",3.3 µM
same,activity on Mm-broth (in words),[3],sterilizing activity
CCc1cc(C(N)=S)ccn1 [ethionamide],IC50,[1]; [8],4 µM
same,activity on Mm-inf (in words),[1]; [9],sterilizing activity
same,IC50,[3]; 72 h,0.8 µM
same,MIC,"[3]; 72 h, read-out: MIC Mm-broth",3.3 µM
same,activity on Mm-broth (in words),[3],sterilizing activity
same,breakpoint of antibacterial susceptibility for Mm,"Mm [5]; ref Lorian, 2005",5 µg/mL
COc1cc(/C=C/c2ccc3oc(-c4ccc(O)cc4)c(-c4cc(OC)cc(OC)c4)c3c2)cc(OC)c1 [compound 69],activity on Mm-inf (in words),[1]; dose-response curve,remained inactive
COc1cc(C=Cc2ccc3c(c2)C(c2cc(OC)cc(OC)c2)C(c2ccc(O)cc2)O3)cc(OC)c1 (stereo not shown) [compound 21],activity at 20 µM,[1]; [10],140%
same,normalized residual growth of Mm-broth,[3],1
CO[C@H]1/C=C/O[C@@]2(C)Oc3c(C)c(O)c4c(c3C2=O)C2=NC3(CCN(CC(C)C)CC3)NC2=C(NC(=O)/C(C)=C\C=C\[C@H](C)[C@H](O)[C@@H](C)[C@@H](O)[C@@H](C)[C@H](OC(C)=O)[C@@H]1C)C4=O [rifabutin],IC50,[1]; [8],0.2 µM
same,activity on Mm-inf (in words),[1]; [9],sterilizing activity
same,"activity on Dd growth, Dd-inf (in words)",[2]; dose-response curve,affected amoebae growth slightly at the highest tested concentrations
same,IC50,[3]; 72 h,0.03 µM
same,MIC,"[3]; 72 h, read-out: MIC Mm-broth",0.01 µM
same,activity on Mm-broth (in words),[3],sterilizing activity
same,breakpoint of antibacterial susceptibility for Mm,Mm [5]; [11],2 µg/mL
COc1cc(OC)cc(-c2c(-c3ccc(O)cc3)oc3ccc(/C=C/c4cc(O)cc(O)c4)cc23)c1 [compound 67],IC50,[1]; [8],19.6 µM
"NC(=O)c1cnccn1 [pyrazinamide, reference compound]",pro-infective effect on Mm-inf (in words),[1],slight pro-infective effect
same,activity on Mm-inf (in words),[1]; dose-response curve,lack of activity; also recorded: no activity against Mm
same,activity on Mm in broth (in words),[3],no activity against Mm
"NNC(=O)c1ccncc1 [isoniazid, reference compound]",IC50,[1]; [8],11 µM
same,activity on Mm-inf (in words),[1]; [9],sterilizing activity
same,pro-infective effect on Mm-inf (in words),[1],slight pro-infective effect
same,MIC,[1]; [12],4.1 µg/mL
same,MIC,[1]; [13],30 µM
same,IC50,[3]; 72 h,10 µM
same,MIC,[3]; [14],30 µM
same,MIC,"[3]; converted from μM, read-out: MIC in broth",4.1 µg/mL
same,activity on Mm-broth (in words),[3],sterilizing activity
COc1cc(/C=C/c2ccc3oc(-c4ccc(O)cc4)c(-c4cc(O)cc(O)c4)c3c2)cc(OC)c1 [compound 68],IC50,[1]; [8],20.1 µM
"COc1cc(/C=C/c2ccc(O)cc2)cc(OC)c1 [compound 2, pterostilbene]",activity at 20 µM,[1]; [10],28%
same,IC50,[1]; [6],19.8 µM
same,activity on Mm-inf (in words),[1]; dose-response curve,validated anti-infectives without antibiotic properties
same,normalized residual growth of Dd-inf,[2],–0.16
same,IC50,[2]; dose-response curve,11.1 µM
same,activity on Mm in broth (in words),[3],inactive on Mm in broth
Oc1ccc(-c2oc3ccc(/C=C/c4cc(O)cc(O)c4)cc3c2-c2cc(O)cc(O)c2)cc1 [compound 66],IC50,[1]; [8],29.7 µM
same,activity at 20 µM,[1]; [7],55%
same,IC50,[2],26.2 µM
"COc1cc(/C=C/c2cc(O)cc(O)c2)ccc1O [compound 4, isorhapontigenin]",activity on Mm-inf (in words),[1]; dose-response curve,lack of activity
COc1cc(OC)cc([C@H]2c3cc(/C=C\c4cc(O)cc(O)c4)ccc3O[C@@H]2c2ccc(O)cc2)c1 [compound 56],IC50,[1]; [8],19.7 µM
"CO[C@H]1/C=C/O[C@@]2(C)Oc3c(C)c(O)c4c(O)c(c(/C=N/N5CCN(C)CC5)c(O)c4c3C2=O)NC(=O)/C(C)=C\C=C\[C@H](C)[C@H](O)[C@@H](C)[C@@H](O)[C@@H](C)[C@H](OC(C)=O)[C@@H]1C [rifampicin, reference compound]",IC50,[1]; [8],5 µM
same,activity on Mm-inf (in words),[1]; [9],sterilizing activity
same,MIC,[1]; [13],10 µM
same,"activity on Dd growth, Dd-inf (in words)",[2]; dose-response curve,affected amoebae growth slightly at the highest tested concentrations
same,IC50,[3]; 72 h,0.1 µM
same,MIC,[3]; [14],1.1 µM
same,activity on Mm-broth (in words),[3],sterilizing activity
COc1cc([C@H]2Oc3c(OC)cc(/C=C/c4cc(O)cc(O)c4)cc3[C@@H]2c2cc(O)cc(O)c2)ccc1O [compound 65],activity on Mm-inf (in words),[1]; at 20 μM,pro-infective activity
COc1cc(O)cc(/C=C/c2ccc3c(c2)[C@H](c2cc(O)cc(OC)c2)[C@@H](c2ccc(O)cc2)O3)c1 [compound 64],IC50,[1]; [6],8 µM
same,lowest measured value of Dd-inf (normalized residual growth),[2]; dose-response curve,0.62
same,"growth of intracellular Mm (segmented area, in words)",intracellular Mm,infection was well controlled
same,"growth of uninfected Dd (segmented area, in words)",Dd Ax2(ka) cells,only a slight growth inhibition at 20 μM
"CC[C@@H](CO)NCCN[C@@H](CC)CO [ethambutol, reference compound]",IC50,[1]; [8],7 µM
same,activity on Mm-inf (in words),[1]; [9],sterilizing activity
same,MIC,[1]; [12],6.1 µg/mL
same,MIC,[1]; [13],30 µM
same,IC50,[3]; 72 h,1 µM
same,MIC,[3]; [14],3.3 µM
same,activity on Mm-broth (in words),[3],sterilizing activity
same,breakpoint of antibacterial susceptibility for Mm,Mm [5]; [11],4 µg/mL
COc1ccc([C@H]2Oc3ccc(/C=C/c4cc(O)cc(OC)c4)cc3[C@@H]2c2cc(O)cc(O)c2)cc1 [compound 63],IC50,[1]; [6],8.6 µM
same,lowest measured value of Dd-inf (normalized residual growth),[2]; dose-response curve,0.8
same,"growth of intracellular Mm (segmented area, in words)",intracellular Mm,infection was well controlled
same,"growth of uninfected Dd (segmented area, in words)",Dd Ax2(ka) cells,only a slight growth inhibition at 20 μM
COc1cc(C=Cc2ccc3c(c2)C(c2cc(O)cc(O)c2)C(c2ccc(O)cc2)O3)cc(OC)c1 (stereo not shown) [compound 19],IC50,[1]; [6],9 µM
same,activity on Mm-inf (in words),[1]; at 20 μM,passed again the 0.5 cut-off
same,activity on Mm-inf (in words),[1]; dose-response curve,dose-dependent activity; also recorded: validated anti-infectives without antibiotic properties
same,activity at 20 µM,[1]; [7],-32%
same,normalized residual growth of Dd-inf,[2],–0.22
same,IC50,[2]; dose-response curve,12.1 µM
same,lowest measured value of Dd-inf (normalized residual growth),[2]; dose-response curve,−0.40
same,activity on Mm in broth (in words),[3],no activity on Mm in broth; also recorded: without antibiotic activity; also recorded: did not show any growth inhibition
same,"growth of intracellular Mm (segmented area, in words)",intracellular Mm,almost completely inhibited
same,"growth of infected Dd (segmented area, in words)",Dd Ax2(ka) cells,almost completely inhibited
same,"growth of uninfected Dd (segmented area, in words)",Dd Ax2(ka) cells,significantly reduced
COc1cc(/C=C\c2ccc3c(c2)[C@H](c2cc(OC)cc(OC)c2)[C@@H](c2ccc(O)cc2)O3)cc(OC)c1 [compound 58],activity on Mm-inf (in words),[1]; at 20 μM,inactive
"Oc1ccc(/C=C/c2cc(O)cc(O)c2)cc1 [compound 1, resveratrol]",activity on Mm-inf (in words),[1]; dose-response curve,lack of activity
"Oc1ccc(C2Oc3ccc(C=Cc4cc(O)cc(O)c4)cc3C2c2cc(O)cc(O)c2)cc1 (stereo not drawn) [compound 11, trans-δ-viniferin]",activity at 20 µM,[1]; [10],110%
same,normalized residual growth of Mm-broth,[3],1
COc1cc(/C=C\c2ccc3c(c2)[C@H](c2cc(O)cc(O)c2)[C@@H](c2ccc(O)cc2)O3)cc(OC)c1 [compound 57],IC50,[1]; [8],9.8 µM
COc1ccc([C@H]2Oc3ccc(/C=C/c4cc(O)cc(O)c4)cc3[C@@H]2c2cc(O)cc(OC)c2)cc1 [compound 62],IC50,[1]; [6],13.4 µM
same,lowest measured value of Dd-inf (normalized residual growth),[2]; dose-response curve,0.42
